The text below walks through data of patent US9884065B2, “Inhibiting activity of senescent cells using a glucocorticoid” (Buck Institute for Research on Aging, priority 2011, dated 2018).

In one series the test system is HCA2 human fibroblasts. Particulars: 2.5 μM, 48 hours. How it is done: (§1) The initial drug screen was performed in a 96-well format using automated liquid handling with a Biomek FX (Beckman Coulter, CA). Senescent cells were plated 24 hours after X-irradiation at 7,500 cells per well in 96-well plates. Six days after plating the senescent cells, the pre-senescent cells were plated at 7,500 cells per well in 96-well plates. Twenty-four hours after pre-senescent plating, both pre-senescent and senescent cells were washed and incubated in low (0.2%) serum for 48 hours to arrest cell proliferation of the pre-senescent cells. Drugs from the Prestwick Chemical Library, which contains 1120 bio-available compounds in DMSO, were given to the cells at 2.5 μM in media containing 0.2% serum. Forty-eight hours after compound addition, the medium in each well was removed and frozen for assay by ELISA to quantitate the levels of IL-6. The cells, which remained in the wells after the medium was removed, were lysed and ATP levels were measured (ATPlite 1-step assay, Perkin Elmer, MA) to exclude compounds that lowered IL-6 through toxicity (cell death). Experimental wells in each plate were normalized to plate mean or same-plate DMSO controls for the ELISA and ATP assays, respectively.
To identify small molecules that may be potential SASP modulators, a screening strategy that entailed administering compounds to parallel 96-well plates containing human fibroblasts (strain HCA2) that were either quiescent or senescent was developed. The compounds tested comprised the Prestwick Chemical Library, a collection of approximately 1,120 Federal Drug Administration-approved drugs. The compounds were added to duplicate wells at a single concentration (2.5 μM). After 48 hours, the medium from each well was removed, and the cells were lysed. […] Cell lysates were assayed for ATP as a surrogate for cell number.

For series [1], the system named is IL-6. In words: Initial drug screen (Prestwick Chemical Library), IL-6 ELISA of medium. The class given is cell-based, human. To be noted: 2.5 μM, 48 hours, HCA2 fibroblasts, 0.2% serum. How it is done:
as §1, with “Drugs from the Prestwick Chemical Library, which contains 1120 bio-available compounds in DMSO, were given to the cells at 2.5 μM in media containing 0.2% serum.” left out
To identify small molecules that may be potential SASP modulators, a screening strategy that entailed administering compounds to parallel 96-well plates containing human fibroblasts (strain HCA2) that were either quiescent or senescent was developed. […] After 48 hours, the medium from each well was removed, and the cells were lysed. […] Cell lysates were assayed for ATP as a surrogate for cell number.
(In general: An ELISA detects its analyte on a solid surface through an enzyme-linked reagent.)

Series [2] has as its system IL-6. In words: IL-6 ELISA of conditioned media from X-irradiated senescent HCA2 fibroblasts. The format is cell-based, human. To be noted: 50 nM corticosterone or 100 nM cortisol; rIL-1α given six days after irradiation, 24 hours. How it is done: To validate glucocorticoids as SASP regulators, they were added within 15 min after irradiation (unless otherwise indicated). For cells induced to senesce by MKK6 or RAS overexpression, glucocorticoid treatment started 16 hours after infection. Glucocorticoids were re-added in fresh media every other day. Six days after irradiation or selection, cells were given serum-free DMEM with or without glucocorticoid for 24 hours; the conditioned media were collected and frozen for ELISAs.
Conditioned media were filtered and stored at −80° C. Cell numbers were determined in every experiment. ELISAs were performed using kits and procedures from PerkinElmer (IL-6 AL223F). Data were normalized and expressed as pg/ml/cell/24 h.
To confirm the ability of corticosterone to suppress senescence-associated IL-6 secretion, fresh HCA2 fibroblast cultures were prepared, and senescence was induced by X-irradiation (10 Gy). Under these conditions, cells undergo growth arrest within 24-48 hours, but require 4-5 days before SASP components are detected in the medium (Coppe et al., 2008, PLoS Biol. 6:2853-2868; Rodier et al., 2009, Nature Cell Biol. 11:973-979; Coppe et al., 2010, PLoS ONE 5:e9188; Freund et al., 2011, EMBO J. 30:1536-1548). Varying concentrations of corticosterone were added immediately after irradiation, and the cells were maintained in the drug for 6 days. On the 6th day, the cells were incubated in serum-free medium with or without corticosterone, the conditioned medium was collected 24 h later, and the medium was assayed for IL-6 by ELISA. […] The ability of corticosterone to suppress IL-6 secretion by senescent cells was not peculiar to HCA2 cells.

A further series concerns NF-κB. In words: NF-κB reporter-luciferase transactivation assay. The format is cell-based, human. To be noted: 0.5 μM RU-486 or 2.5 ng mL^−1 IL-1α. How it is done:
Nuclear extracts were prepared using the nuclear extract kit (Active Motif), and NF-κB DNA binding was determined using the TransAM NF-κB p65 kit (Active Motif). For transactivation assays, cells infected with the NF-κB reporter-luciferase lentivirus were lysed in buffer (Promega), and luciferase activity was normalized to cell number, as described (Freund et al., 2011, EMBO J. 30:1536-1548).

For the compound `Nc1cc(N2CCCCC2)nc(N)[n+]1[O-]` [minoxidil], the ATP levels result with HCA2 human fibroblasts is given as “without altering ATP levels”.

Turning to `Cc1ccc(S(=O)(=O)NC(=O)NN2CC3CCCC3C2)cc1` (stereo not shown) [gliclazide], the “IL-6 secretion (ELISA)” value in the series with IL-6 [1] was “suppressed IL-6 secretion”. Besides, in the series with HCA2 human fibroblasts, the ATP levels entry was “without altering ATP levels”.

`C[C@]12CC[C@@H]3c4ccc(O)cc4CC[C@H]3[C@@H]1CC[C@@H]2O` [estradiol-17-beta]: the “IL-6 secretion (ELISA)” value with IL-6 [1] was “suppressed IL-6 secretion”.

On to `C/C(=C(\CCOP(=O)(O)O)SC(=O)c1ccccc1)N(C=O)Cc1cnc(C)nc1N` [benfotiamine], for which the “IL-6 secretion (ELISA)” value in the series with IL-6 [1] is recorded as “suppressed IL-6 secretion”. In the series on HCA2 human fibroblasts, the ATP levels entry is reported as “without altering ATP levels”.

Turning to “Recombinant IL-1α: recombinant IL-1α protein added to glucocorticoid-treated senescent cells”, in the series with IL-6 [2], the “IL-6 secretion suppressed by corticosterone and cortisol, added recombinant IL-1α” value is on record as “rescued the suppression of IL-6 secretion”. Further, the “NF-κB transactivation activity, co-treatment with either glucocorticoid” value in the series with NF-κB is “rescued NF-κB transactivation activity”.

Take `CC(C)(C)NC(=O)[C@H]1CC[C@H]2[C@@H]3CC[C@H]4NC(=O)C=C[C@]4(C)[C@H]3CC[C@]12C` [finasteride]: the “IL-6 secretion (ELISA)” value in the series on IL-6 [1] is recorded as “suppressed IL-6 secretion”. For the same compound, in the series with HCA2 human fibroblasts, the ATP levels result is “without altering ATP levels”.

With `CCCNC(=O)NS(=O)(=O)c1ccc(Cl)cc1` [chlorpropamide], the “IL-6 secretion (ELISA)” value with IL-6 [1] is “suppressed IL-6 secretion”. Besides, the ATP levels result with HCA2 human fibroblasts was “without altering ATP levels”.

For the compound `C[C@]12CC[C@@H](O)C[C@@H]1CC[C@@H]1[C@@H]2CC[C@]2(C)C(=O)CC[C@@H]12` [androsterone], in the series with IL-6 [1], the “IL-6 secretion (ELISA)” value was “suppressed IL-6 secretion”. The ATP levels result in the series with HCA2 human fibroblasts is given as “without altering ATP levels”.

With `Cc1ccc(S(=O)(=O)NC(=O)NN2CCCCCC2)cc1` [tolazamide], the “IL-6 secretion (ELISA)” value in the series on IL-6 [1] is “suppressed IL-6 secretion”. Further, the ATP levels entry with HCA2 human fibroblasts is “without altering ATP levels”.

On to `C[C@]12C=CC(=O)C=C1CC[C@@H]1[C@@H]2C(=O)C[C@@]2(C)[C@H]1CC[C@]2(O)C(=O)CO` [prednisone], for which the “IL-6 secretion (ELISA)” value in the series on IL-6 [1] was “suppressed IL-6 secretion”. Also, the ATP levels entry in the series on HCA2 human fibroblasts is “without altering ATP levels”.

`C#C[C@]1(O)CC[C@H]2[C@@H]3CCC4=CC(=O)CC[C@@H]4[C@H]3CC[C@@]21CC` [norgestrel-(−)-D]: in the series with IL-6 [1], the “IL-6 secretion (ELISA)” value was “suppressed IL-6 secretion”.
